The assay has as its target T1, μ-opioid receptor (MOPR) (Mus musculus, UniProt P42866).
T1 construct: from tissue; host or cells: ventral tegmental area of living wild-type C57Bl6 mice (in vivo)
In words: Contraversive rotation/locomotor testing assay after wireless intra-VTA infusion. Type of assay: in vivo. The settings on record: 200 pmol, wireless unilateral intra-VTA infusion, within-subject vs ACSF vehicle, wild-type mice, n=7.

“Also recorded” adds a separate entry of the source.

T1 sequence (P42866 whole entry): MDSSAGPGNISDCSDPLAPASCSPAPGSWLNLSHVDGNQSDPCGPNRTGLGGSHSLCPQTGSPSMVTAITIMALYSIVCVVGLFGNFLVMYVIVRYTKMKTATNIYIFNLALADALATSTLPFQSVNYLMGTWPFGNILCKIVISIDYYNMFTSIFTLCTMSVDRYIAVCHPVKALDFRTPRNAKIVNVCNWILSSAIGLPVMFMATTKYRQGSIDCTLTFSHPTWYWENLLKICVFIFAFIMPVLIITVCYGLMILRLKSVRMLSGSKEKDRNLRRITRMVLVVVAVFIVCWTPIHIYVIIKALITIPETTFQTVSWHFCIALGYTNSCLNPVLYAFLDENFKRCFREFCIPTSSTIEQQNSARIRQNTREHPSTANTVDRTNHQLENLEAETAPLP
From the text: As a proof-of-principle within-subject in vivo pharmacology experiment, two chambers of each device were loaded with different pharmacological agents; one with the synthetic opioid peptide and MOPR agonist, [D-Ala^2, N-MePhe^4, Gly-ol]-enkephalin (DAMGO, 200 pmol, Tocris), and one with artificial cerebral spinal fluid (ACSF) as a vehicle control. In a counter-balanced design, either the DAMGO or vehicle was wirelessly delivered into the VTA of freely behaving animals over a distance of ˜1 m away from the animal (FIGS. 88, A and B).
After the mice were acclimatized to the holding facility for seven to nine days, they were anaesthetized in an induction chamber (4% Isolflurane) and placed in a stereotaxic frame (Kopf Instruments, Model 1900) where they were maintained at 1-2% isoflurane. […] For the DAMGO-induced rotation experiment, mice were implanted with the microfluidic device above the VTA (stereotaxic coordinates from bregma (mm): AP:-3.10, ML: +/−0.50, DV: −4.25). […] A standard electrode holder (KOPF 1770) was adapted to implant the microfluidic and optofluidic devices. […] The implants were secured using two bone screws (CMA, 743102) and affixed with dental cement (Lang Dental). C571Bl6 mice were allowed to recover for 5 days prior to behavioral testing.
C571Bl6 mice with microfluidic devices implanted above the VTA were placed in the center of the same arena used for the OFT and allowed to roam freely for 1 hr. Wireless infusion of vehicle or DAMGO was initiated and movements were video recorded and analyzed using Ethovision. Rotations were defined as full 360° revolutions in the path of movement.

Consider `C[C@@H](NC(=O)[C@@H](N)Cc1ccc(O)cc1)C(=O)NCC(=O)N(C)[C@@H](Cc1ccccc1)C(=O)NCCO` [DAMGO, [D-Ala^2, N-MePhe^4, Gly-ol]-enkephalin], for which the “contraversive 360° rotations” value is on record as “significant increase; also recorded: stereotypical rotations contralateral to injection site” and the overall locomotor activity entry is “significant increase; also recorded: robust increase in overall locomotor activity”.
